Experimental data published in patent publication US6706664B1, “Benzoxazole compounds, process for the preparation thereof and herbicides” (UBE Industries, Ltd., priority 1999, dated 2004).

What was measured:
Design in all cases: key: 0: normal development; 1: Less damaged; 2: Slightly damaged; 3: Moderately damaged; 4: Severely damaged; 5: All killed
livid amaranth [1] = experiment: Foliar spread test for upland field; type: in vivo, Amaranthus lividus; details: foliar spray 500 ppm, 3 weeks, rank vs non-treated
Method in brief: (§1)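 Post-emergence foliar spray, 500 ppm (wettable powder in water + 0.5% surfactant), on ~2-week-old plants grown in volcanic ash soil; glasshouse, avg 25° C, 3 wk; visual damage score 0–5.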

morning glory = experiment: Foliar spread test for upland field; type: in vivo, Ipomoea spps.; details: foliar spray 500 ppm, 3 weeks, rank vs non-treated
Method in brief: as §1

annual bluegrass [2] = experiment: Soil treatment test for upland field; type: in vivo, Poa annua; details: 500 g/ha, glass house 25° C., 3 weeks
Method in brief: (§2)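 Seeds planted in Wagner pots of Ube soil (alluvial) and covered. Wettable powder diluted in 0.05% surfactant water, sprayed uniformly onto soil at 500 g/ha effective rate. Grown 3 weeks, glasshouse, mean 25° C, then damage rated visually 0–5.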

barnyardgrass [3] = experiment: Foliar spread test for upland field; type: in vivo, Echinochloa crusgalli; details: foliar spray 500 ppm, 3 weeks, rank vs non-treated
Text: (§3) (0: normal development, 1: Less damaged, 2: Slightly damaged, 3: Moderately damaged, 4: Severely damaged, 5: All killed).
(§4) Wagner pots, each having an area of 1/5000 are, were packed with volcanic ash soil and then each seed of corn, soybean, cotton, wheat, solgum, sugar beat, Large crabgrass, barnyardgrass, green foxtail, blackgrass, annual bluegrass, common lambsquartes, livid amaranth, velvetleaf and morning glory was planted, covered with soil and grown in a glass house at an average temperature of […] for about 2 weeks.
(§5) Each wettable powder of the desired compounds (I) shown in Table 1 prepared in accordance with Example 2 was diluted to 500 ppm with water containing a surfactant (0.5%) and then uniformly sprayed on the above respective plants.
(§6) After these plants were controlled in a glass house at an average temperature of 25° C. for 3 weeks, the herbicidal effects thereof were investigated.
(§7) The herbicidal effects were evaluated according to the evaluation method described in the above (1).

common lambsquartes [4] = experiment: Soil treatment test for upland field; type: in vivo, Chenopodium album; details: 500 g/ha, glass house 25° C., 3 weeks
Method in brief: as §2

corn [5] = experiment: Foliar spread test for upland field; type: in vivo; details: foliar spray 500 ppm, 3 weeks, rank vs non-treated
Method in brief: (§8)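 Crop seeds sown in volcanic ash soil in Wagner pots were raised about 2 weeks in a glasshouse, then sprayed with wettable-powder formulations diluted to 500 ppm in water with 0.5% surfactant. After 3 weeks at an average 25° C., injury was scored 0 (normal) to 5 (all killed).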

soybean [6] = experiment: Foliar spread test for upland field; type: in vivo; details: foliar spray 500 ppm, 3 weeks, rank vs non-treated
Method in brief: as §8

wheat [7] = experiment: Foliar spread test for upland field; type: in vivo; details: foliar spray 500 ppm, 3 weeks, rank vs non-treated
Method in brief: as §8

sugar beat [8] = experiment: Foliar spread test for upland field; type: in vivo; details: foliar spray 500 ppm, 3 weeks, rank vs non-treated
Method in brief: as §8

solgum [9] = experiment: Foliar spread test for upland field; type: in vivo; details: foliar spray 500 ppm, 3 weeks, rank vs non-treated
Method in brief: as §8

cotton [10] = experiment: Foliar spread test for upland field; type: in vivo; details: foliar spray 500 ppm, 3 weeks, rank vs non-treated
Method in brief: as §8

green foxtail [11] = experiment: Soil treatment test for upland field; type: in vivo, Setaria viridis; details: 500 g/ha, glass house 25° C., 3 weeks
Method in brief: as §2

common lambsquartes [12] = experiment: Foliar spread test for upland field; type: in vivo, Chenopodium album; details: foliar spray 500 ppm, 3 weeks, rank vs non-treated
Method in brief: as §1

blackgrass [13] = experiment: Soil treatment test for upland field; type: in vivo, Alopecurus aegualis; details: 500 g/ha, glass house 25° C., 3 weeks
Method in brief: as §2

annual bluegrass [14] = experiment: Foliar spread test for upland field; type: in vivo, Poa annua; details: foliar spray 500 ppm, 3 weeks, rank vs non-treated
Method in brief: as §1

livid amaranth [15] = experiment: Soil treatment test for upland field; type: in vivo, Amaranthus lividus; details: 500 g/ha, glass house 25° C., 3 weeks
Method in brief: as §2

Large crabgrass [16] = experiment: Soil treatment test for upland field; type: in vivo, Digitaria adscendens; details: 500 g/ha, glass house 25° C., 3 weeks
Method in brief: as §2

barnyardgrass [17] = experiment: Soil treatment test for upland field; type: in vivo, Echinochloa crusgalli; details: 500 g/ha, glass house 25° C., 3 weeks
Method in brief: as §2

green foxtail [18] = experiment: Foliar spread test for upland field; type: in vivo, Setaria viridis; details: foliar spray 500 ppm, 3 weeks, rank vs non-treated
Method in brief: as §1

velvetleaf [19] = experiment: Foliar spread test for upland field; type: in vivo, Abutilon theophrasti; details: foliar spray 500 ppm, 3 weeks, rank vs non-treated
Method in brief: as §1

blackgrass [20] = experiment: Foliar spread test for upland field; type: in vivo, Alopecurus aegualis; details: foliar spray 500 ppm, 3 weeks, rank vs non-treated
Text: as §3, §4, §5, §6, §7

velvetleaf [21] = experiment: Soil treatment test for upland field; type: in vivo, Abutilon theophrasti; details: 500 g/ha, glass house 25° C., 3 weeks
Method in brief: as §2

Large crabgrass [22] = experiment: Foliar spread test for upland field; type: in vivo, Digitaria adscendens; details: foliar spray 500 ppm, 3 weeks, rank vs non-treated
Method in brief: as §1

corn [23] = experiment: Soil treatment test for upland field; type: in vivo; details: 500 g/ha, glass house 25° C., 3 weeks
Method in brief: as §2

soybean [24] = experiment: Soil treatment test for upland field; type: in vivo; details: 500 g/ha, glass house 25° C., 3 weeks
Method in brief: as §2

wheat [25] = experiment: Soil treatment test for upland field; type: in vivo; details: 500 g/ha, glass house 25° C., 3 weeks
Method in brief: as §2

sugar beat [26] = experiment: Soil treatment test for upland field; type: in vivo; details: 500 g/ha, glass house 25° C., 3 weeks
Method in brief: as §2

solgum [27] = experiment: Soil treatment test for upland field; type: in vivo; details: 500 g/ha, glass house 25° C., 3 weeks
Method in brief: as §2

cotton [28] = experiment: Soil treatment test for upland field; type: in vivo; details: 500 g/ha, glass house 25° C., 3 weeks
Method in brief: as §2

| SMILES | Effects Livid amaranth (livid amaranth [1]) | Effects Morning glory (morning glory) | Effects Annual bluegrass (annual bluegrass [2]) | Effects Barnyardgrass (barnyardgrass [3]) | Effects Common lambsquarters (common lambsquartes [4]) | Effects Corn (corn [5]) | Effects Soybean (soybean [6]) | Effects Wheat (wheat [7]) | Effects Sugar beat (sugar beat [8]) | Effects Solgum (solgum [9]) | Effects Cotton (cotton [10]) | Effects Green foxtail (green foxtail [11]) | Effects Common lambsquarters (common lambsquartes [12]) | Effects Blackgrass (blackgrass [13]) | Effects Annual bluegrass (annual bluegrass [14]) | Effects Livid amaranth (livid amaranth [15]) | Effects Large crabgrass (Large crabgrass [16]) | Effects Barnyardgrass (barnyardgrass [17]) | Effects Green foxtail (green foxtail [18]) | Effects Velvetleaf (velvetleaf [19]) | further results |
| --- | --- | --- | --- | --- | --- | --- | --- | --- | --- | --- | --- | --- | --- | --- | --- | --- | --- | --- | --- | --- | --- |
| CCC(Oc1ccc(F)c(C(F)(F)F)c1)c1nc2ccc(C(F)(F)F)cc2o1 (stereo not shown) [Compound 93] | 4 | 3 | 5 | 2 | 3 | 2 | 4 | 2 | 4 | 1 | 3 | 5 | 4 | 3 | 1 | 5 | 5 | 4 | 3 | 2 | Effects Blackgrass (blackgrass [20]): 1; Effects Velvetleaf (velvetleaf [21]): 2; Effects Large crabgrass (Large crabgrass [22]): 3; Effects Corn (corn [23]): 1; Effects Soybean (soybean [24]): 2; Effects Wheat (wheat [25]): 0; Effects Sugar beat (sugar beat [26]): 5; Effects Solgum (solgum [27]): 1; Effects Cotton (cotton [28]): 1 |
| CCCC(Oc1ccc(F)c(C(F)(F)F)c1)c1nc2ccc(C(F)(F)F)cc2o1 (stereo not shown) [Compound 101] | 4 | 3 | 5 | 1 | 4 | 1 | 3 | 1 | 2 | 1 | 2 | 5 | 4 | 3 | 1 | 5 | 5 | 3 | 2 | 3 | Effects Blackgrass (blackgrass [20]): 1; Effects Velvetleaf (velvetleaf [21]): 2; Effects Large crabgrass (Large crabgrass [22]): 2; Effects Corn (corn [23]): 0; Effects Soybean (soybean [24]): 0; Effects Wheat (wheat [25]): 0; Effects Sugar beat (sugar beat [26]): 2; Effects Solgum (solgum [27]): 1; Effects Cotton (cotton [28]): 0 |
| CCC(Oc1ccc(F)c(C(F)(F)F)c1)c1nc2cc(I)ccc2o1 (stereo not shown) [Compound 171] | 5 | 5 | 5 | 1 | 2 | 2 | 3 | 2 | 3 | 2 | 4 | 5 | 4 | 1 | 3 | 5 | 5 | 2 | 5 | 3 | Effects Blackgrass (blackgrass [20]): 1; Effects Large crabgrass (Large crabgrass [22]): 3; Effects Corn (corn [23]): 0; Effects Soybean (soybean [24]): 0; Effects Wheat (wheat [25]): 1; Effects Sugar beat (sugar beat [26]): 5; Effects Solgum (solgum [27]): 1; Effects Cotton (cotton [28]): 0 |
| CCC(Oc1cccc(OC(F)(F)F)c1)c1nc2cc(Cl)ccc2o1 (stereo not shown) [Compound 447] | 5 | 5 | 5 | 1 | 3 | 3 | 5 | 2 | 5 | 3 | 4 | 5 | 5 | 5 | 2 | 5 | 5 | 4 | 2 | 2 | Effects Blackgrass (blackgrass [20]): 2; Effects Velvetleaf (velvetleaf [21]): 2; Effects Large crabgrass (Large crabgrass [22]): 3; Effects Corn (corn [23]): 2; Effects Soybean (soybean [24]): 0; Effects Wheat (wheat [25]): 1; Effects Sugar beat (sugar beat [26]): 5; Effects Solgum (solgum [27]): 1; Effects Cotton (cotton [28]): 0 |
